# Where a SMILES comes first, the peptide text is derived from it. Bridges are numbered along the chain shown (N, C = ends). [ ]: non-standard residue; d: D form. The star is where a group is joined. Phe(4-CH2CH2COOH) = N[C@@H](Cc1ccc(CCC(=O)O)cc1)C(=O)O; Phe(4-COOH) = N[C@@H](Cc1ccc(C(=O)O)cc1)C(=O)O; Bip = N[C@@H](Cc1ccc(-c2ccccc2)cc1)C(=O)O; Phe(3-Me) = Cc1cccc(C[C@H](N)C(=O)O)c1; h4Pal = N[C@@H](CCc1ccncc1)C(=O)O; 4Pal = N[C@@H](Cc1ccncc1)C(=O)O; Cit = NC(=O)NCCC[C@H](N)C(=O)O; Carboxymethyl = O=C(O)C*; Orn = NCCC[C@H](N)C(=O)O; Dab = NCC[C@H](N)C(=O)O; Dap = NC[C@H](N)C(=O)O
# Biological target: T1, human PD-1 / PD-L1-Ig binding on Jurkat cell line over-expressing human PD-1 (Jurkat-PD-1) (Homo sapiens, UniProt Q15116)
# T1 construct: expressed in transfected cells; host or cells: Jurkat
# Experiment: Jurkat-PD-1 Cell Binding High-Content Screening Assay (CBA)
# Format: cell-based
# Details: Jurkat-PD-1 cells, PE-labeled PD-L1-Ig 20 nM final; read-out: Jurkat HPD1_PDL1 IC50
# Outline: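 Cell-bound PE-labeled PD-L1-Ig (20 nM final, 1 h) measured by high-content imaging after fixation and Hoechst 33342 counterstain. Compound was applied first for 2 h at 37° C. to Jurkat cells over-expressing human PD-1 in DMEM with 10% FCS.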
# T1 sequence (Q15116 25-288): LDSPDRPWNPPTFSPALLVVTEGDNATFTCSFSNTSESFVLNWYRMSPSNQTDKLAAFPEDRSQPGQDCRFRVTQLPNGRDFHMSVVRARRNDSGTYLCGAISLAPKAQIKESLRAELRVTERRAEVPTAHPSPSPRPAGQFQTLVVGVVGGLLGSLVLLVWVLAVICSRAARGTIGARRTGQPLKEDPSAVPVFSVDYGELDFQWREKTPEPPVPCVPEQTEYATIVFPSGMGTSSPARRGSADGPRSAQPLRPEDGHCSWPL
row,Structure (SMILES),IC50 [nM]
1,CC(C)C[C@@H]1NC(=O)[C@H](CCN)NC(=O)[C@@H](CC(C)C)NC(=O)[C@H](CCCN)NC(=O)[C@H](CCCNC(N)=O)NC(=O)[C@H](Cc2ccc(-c3ccccc3)cc2)NC(=O)[C@H](C(C)C)NC(=O)[C@H](Cc2c[nH]c3ccccc23)NC(=O)[C@H](CC(=O)O)NC(=O)[C@H](Cc2ccc(OCC(=O)O)cc2)NC(=O)[C@H](Cc2ccc(OCC(=O)O)cc2)NC(=O)CSC[C@@H](C(=O)N[C@@H](C)C(N)=O)NC(=O)[C@H]([C@@H](C)O)NC(=O)[C@H](C(C)C)NC1=O [Compound 1247] ({CH2CO}-Y(Carboxymethyl)Y(Carboxymethyl)DWV[Bip][Cit][Orn][dL][Dab]LVTCA-NH2; thioether N-14),19.7
2,CC(C)C[C@@H]1NC(=O)[C@H](CCN)NC(=O)[C@@H](CC(C)C)NC(=O)[C@H](CCCN)NC(=O)[C@H](C(C)C)NC(=O)[C@H](Cc2ccc(-c3ccccc3)cc2)NC(=O)[C@H](C(C)C)NC(=O)[C@H](Cc2c[nH]c3ccccc23)NC(=O)[C@H](CC(=O)O)NC(=O)[C@H](Cc2ccc(C(=O)O)cc2)NC(=O)[C@H](Cc2ccc(OCC(=O)O)cc2)NC(=O)CSC[C@@H](C(=O)N[C@@H](C)C(N)=O)NC(=O)[C@H]([C@@H](C)O)NC(=O)[C@H](C(C)C)NC1=O [Compound 1248] ({CH2CO}-Y(Carboxymethyl)[Phe(4-COOH)]DWV[Bip]V[Orn][dL][Dab]LVTCA-NH2; thioether N-14),12.4
3,CC[C@H](C)[C@@H]1NC(=O)[C@H](Cc2ccc(-c3ccccc3)cc2)NC(=O)[C@H](C(C)C)NC(=O)[C@H](Cc2c[nH]c3ccccc23)NC(=O)[C@H](CC(=O)O)NC(=O)[C@H](Cc2ccc(C(=O)O)cc2)NC(=O)[C@H](Cc2ccc(OCC(=O)O)cc2)NC(=O)CSC[C@@H](C(=O)N[C@@H](C)C(N)=O)NC(=O)[C@H]([C@@H](C)O)NC(=O)[C@H](C(C)C)NC(=O)[C@H](CC(C)C)NC(=O)[C@H](CCN)NC(=O)[C@@H](CC(C)C)NC(=O)[C@H](CCCN)NC1=O [Compound 1250] ({CH2CO}-Y(Carboxymethyl)[Phe(4-COOH)]DWV[Bip]I[Orn][dL][Dab]LVTCA-NH2; thioether N-14),6.9
4,Cc1cccc(C[C@@H]2NC(=O)[C@H](CC(=O)O)NC(=O)[C@H](Cc3ccc(C(=O)O)cc3)NC(=O)[C@H](Cc3ccc(OCC(=O)O)cc3)NC(=O)CSC[C@@H](C(=O)N[C@@H](C)C(N)=O)NC(=O)[C@H]([C@@H](C)O)NC(=O)[C@H](C(C)C)NC(=O)[C@H](CC(C)C)NC(=O)[C@H](CCN)NC(=O)[C@@H](CC(C)C)NC(=O)[C@H](CCCN)NC(=O)[C@H](CCCNC(N)=O)NC(=O)[C@H](Cc3ccc(-c4ccccc4)cc3)NC(=O)[C@H](C(C)C)NC2=O)c1 [Compound 1251] ({CH2CO}-Y(Carboxymethyl)[Phe(4-COOH)]D[Phe(3-Me)]V[Bip][Cit][Orn][dL][Dab]LVTCA-NH2; thioether N-14),7.9
5,CC(C)C[C@@H]1NC(=O)[C@H](CCN)NC(=O)[C@@H](CC(C)C)NC(=O)[C@H](CCCN)NC(=O)[C@H](CCCNC(N)=O)NC(=O)[C@H](Cc2ccc(-c3ccccc3)cc2)NC(=O)[C@H](C(C)C)NC(=O)[C@H](Cc2c[nH]c3ccccc23)NC(=O)[C@H](CC(=O)O)NC(=O)[C@H](Cc2ccc(C(=O)O)cc2)NC(=O)[C@H](Cc2ccc(OCC(=O)O)cc2)NC(=O)CSC[C@@H](C(=O)N[C@@H](C)C(N)=O)NC(=O)[C@H]([C@@H](C)O)NC(=O)[C@H](C(C)C)NC1=O [Compound 1252] ({CH2CO}-Y(Carboxymethyl)[Phe(4-COOH)]DWV[Bip][Cit][Orn][dL][Dab]LVTCA-NH2; thioether N-14),21.5
6,CC(C)C[C@@H]1NC(=O)[C@H](Cc2c[nH]c3ccccc23)NC(=O)[C@H](CC(=O)O)NC(=O)[C@H](Cc2ccc(C(=O)O)cc2)NC(=O)[C@H](Cc2ccc(OCC(=O)O)cc2)NC(=O)CSC[C@@H](C(=O)NCC(N)=O)NC(=O)[C@H](CO)NC(=O)[C@H](C(C)C)NC(=O)[C@H](CC(C)C)NC(=O)[C@H](CCN)NC(=O)[C@@H](CC(C)C)NC(=O)[C@H](CCCN)NC(=O)[C@H](C(C)C)NC(=O)[C@H](Cc2ccc(-c3ccccc3)cc2)NC1=O [Compound 1254] ({CH2CO}-Y(Carboxymethyl)[Phe(4-COOH)]DWL[Bip]V[Orn][dL][Dab]LVSCG-NH2; thioether N-14),7.4
7,CC(C)C[C@@H]1NC(=O)[C@H](Cc2c[nH]c3ccccc23)NC(=O)[C@H](CC(=O)O)NC(=O)[C@H](Cc2ccncc2)NC(=O)[C@H](Cc2ccc(OCC(=O)O)cc2)NC(=O)CSC[C@@H](C(=O)NCC(N)=O)NC(=O)[C@H](CO)NC(=O)[C@H](C(C)C)NC(=O)[C@H](CC(C)C)NC(=O)[C@H](CCN)NC(=O)[C@@H](CC(C)C)NC(=O)[C@H](CCCN)NC(=O)[C@H](C(C)C)NC(=O)[C@H](Cc2ccc(-c3ccccc3)cc2)NC1=O [Compound 1258] ({CH2CO}-Y(Carboxymethyl)[4Pal]DWL[Bip]V[Orn][dL][Dab]LVSCG-NH2; thioether N-14),8
8,Cc1cccc(C[C@@H]2NC(=O)[C@H](CC(=O)O)NC(=O)[C@H](Cc3ccc(C(=O)O)cc3)NC(=O)[C@H](Cc3ccc(OCC(=O)O)cc3)NC(=O)CSC[C@@H](C(=O)NCC(N)=O)NC(=O)[C@H](CO)NC(=O)[C@H](C(C)C)NC(=O)[C@H](CC(C)C)NC(=O)[C@H](CCN)NC(=O)[C@@H](CC(C)C)NC(=O)[C@H](CCCN)NC(=O)[C@H](C(C)C)NC(=O)[C@H](Cc3ccc(-c4ccccc4)cc3)NC(=O)[C@H](CC(C)C)NC2=O)c1 [Compound 1260] ({CH2CO}-Y(Carboxymethyl)[Phe(4-COOH)]D[Phe(3-Me)]L[Bip]V[Orn][dL][Dab]LVSCG-NH2; thioether N-14),7.4
9,Cc1cccc(C[C@@H]2NC(=O)[C@H](CC(=O)O)NC(=O)[C@H](Cc3ccncc3)NC(=O)[C@H](CN)NC(=O)CSC[C@@H](C(=O)NCC(N)=O)NC(=O)[C@H](CO)NC(=O)[C@H](C(C)C)NC(=O)[C@H](CC(C)C)NC(=O)[C@H](CCN)NC(=O)[C@@H](CC(C)C)NC(=O)[C@H](CCCN)NC(=O)[C@H](C(C)C)NC(=O)[C@H](Cc3ccc(-c4ccccc4)cc3)NC(=O)[C@H](CC(C)C)NC2=O)c1 [Compound 1261] ({CH2CO}-[Dap][4Pal]D[Phe(3-Me)]L[Bip]V[Orn][dL][Dab]LVSCG-NH2; thioether N-14),13.1

# The remaining compounds from weak to strong by IC50, led by results:
row,IC50 [nM],Structure (SMILES)
1,6.8,Cc1cccc(C[C@@H]2NC(=O)[C@H](CC(=O)O)NC(=O)[C@H](CCc3ccncc3)NC(=O)[C@H](CN)NC(=O)CSC[C@@H](C(=O)N[C@@H](C)C(N)=O)NC(=O)[C@H]([C@@H](C)O)NC(=O)[C@H](C(C)C)NC(=O)[C@H](CC(C)C)NC(=O)[C@H](CCN)NC(=O)[C@@H](CC(C)C)NC(=O)[C@H](CCCN)NC(=O)[C@H](C(C)C)NC(=O)[C@H](Cc3ccc(-c4ccccc4)cc3)NC(=O)[C@H](C(C)C)NC2=O)c1 [Compound 1253] ({CH2CO}-[Dap][h4Pal]D[Phe(3-Me)]V[Bip]V[Orn][dL][Dab]LVTCA-NH2; thioether N-14)
2,6.7,CC(C)C[C@@H]1NC(=O)[C@H](Cc2c[nH]c3ccccc23)NC(=O)[C@H](CC(=O)O)NC(=O)[C@H](Cc2ccc(CCC(=O)O)cc2)NC(=O)[C@H](Cc2ccc(OCC(=O)O)cc2)NC(=O)CSC[C@@H](C(=O)NCC(N)=O)NC(=O)[C@H](CO)NC(=O)[C@H](C(C)C)NC(=O)[C@H](CC(C)C)NC(=O)[C@H](CCN)NC(=O)[C@@H](CC(C)C)NC(=O)[C@H](CCCN)NC(=O)[C@H](C(C)C)NC(=O)[C@H](Cc2ccc(-c3ccccc3)cc2)NC1=O [Compound 1256] ({CH2CO}-Y(Carboxymethyl)[Phe(4-CH2CH2COOH)]DWL[Bip]V[Orn][dL][Dab]LVSCG-NH2; thioether N-14)
3,6.2,Cc1cccc(C[C@@H]2NC(=O)[C@H](CC(=O)O)NC(=O)[C@H](Cc3ccc(OCC(=O)O)cc3)NC(=O)[C@H](Cc3ccncc3)NC(=O)CSC[C@@H](C(=O)NCC(N)=O)NC(=O)[C@H](CO)NC(=O)[C@H](C(C)C)NC(=O)[C@H](CC(C)C)NC(=O)[C@H](CCN)NC(=O)[C@@H](CC(C)C)NC(=O)[C@H](CCCN)NC(=O)[C@H](C(C)C)NC(=O)[C@H](Cc3ccc(-c4ccccc4)cc3)NC(=O)[C@H](CC(C)C)NC2=O)c1 [Compound 1263] ({CH2CO}-[4Pal]Y(Carboxymethyl)D[Phe(3-Me)]L[Bip]V[Orn][dL][Dab]LVSCG-NH2; thioether N-14)
4,5.6,CC(C)C[C@@H]1NC(=O)[C@H](Cc2c[nH]c3ccccc23)NC(=O)[C@H](CC(=O)O)NC(=O)[C@H](Cc2ccc(OCC(=O)O)cc2)NC(=O)[C@H](CN)NC(=O)CSC[C@@H](C(=O)NCC(N)=O)NC(=O)[C@H](CO)NC(=O)[C@H](C(C)C)NC(=O)[C@H](CC(C)C)NC(=O)[C@H](CCN)NC(=O)[C@@H](CC(C)C)NC(=O)[C@H](CCCN)NC(=O)[C@H](C(C)C)NC(=O)[C@H](Cc2ccc(-c3ccccc3)cc2)NC1=O [Compound 1257] ({CH2CO}-[Dap]Y(Carboxymethyl)DWL[Bip]V[Orn][dL][Dab]LVSCG-NH2; thioether N-14)
5,4.6,CC[C@H](C)[C@@H]1NC(=O)[C@H](Cc2ccc(-c3ccccc3)cc2)NC(=O)[C@H](C(C)C)NC(=O)[C@H](Cc2cccc(C)c2)NC(=O)[C@H](CC(=O)O)NC(=O)[C@H](Cc2ccc(C(=O)O)cc2)NC(=O)[C@H](Cc2ccc(OCC(=O)O)cc2)NC(=O)CSC[C@@H](C(=O)N[C@@H](C)C(N)=O)NC(=O)[C@H]([C@@H](C)O)NC(=O)[C@H](C(C)C)NC(=O)[C@H](CC(C)C)NC(=O)[C@H](CCN)NC(=O)[C@@H](CC(C)C)NC(=O)[C@H](CCCN)NC1=O [Compound 1249] ({CH2CO}-Y(Carboxymethyl)[Phe(4-COOH)]D[Phe(3-Me)]V[Bip]I[Orn][dL][Dab]LVTCA-NH2; thioether N-14)
6,4.6,Cc1cccc(C[C@@H]2NC(=O)[C@H](CC(=O)O)NC(=O)[C@H](Cc3ccc(OCC(=O)O)cc3)NC(=O)[C@H](Cc3ccc(OCC(=O)O)cc3)NC(=O)CSC[C@@H](C(=O)NCC(N)=O)NC(=O)[C@H](CO)NC(=O)[C@H](C(C)C)NC(=O)[C@H](CC(C)C)NC(=O)[C@H](CCN)NC(=O)[C@@H](CC(C)C)NC(=O)[C@H](CCCN)NC(=O)[C@H](C(C)C)NC(=O)[C@H](Cc3ccc(-c4ccccc4)cc3)NC(=O)[C@H](CC(C)C)NC2=O)c1 [Compound 1262] ({CH2CO}-Y(Carboxymethyl)Y(Carboxymethyl)D[Phe(3-Me)]L[Bip]V[Orn][dL][Dab]LVSCG-NH2; thioether N-14)
